For the assay, the system named is immature embryos of NB1. The experiment in a line: Asulam kill curve: production of embryogenic callus by immature embryos on Asulam-supplemented W3 medium. The format is cell-based, wheat. Conditions: scored after 6 weeks. On the procedure: The tissue culture protocol was essentially as the method of Weeks et al (Plant Physiol., 102:1077-1084 (1993)). Donor plants of the South American spring wheat line designated NB1, obtained from Nickerson Seeds Limited, were grown in a glasshouse under controlled conditions. Immature ears were harvested at 14-20 days post anthesis, and the immature caryopses were removed from the ear and dehusked using forceps. Caryopses were surface-sterilised with 70% ethanol for 2 minutes and 20% Domestos™ (Lever, UK) for 20-30 minutes and then washed with sterile distilled water. Immature embryos were isolated aseptically under a stereo dissecting microscope and placed scutella uppermost on W3 medium (MS supplemented with 20 g/l sucrose and 2 mg/l 2,4-D and solidified with 6 g/l Type I agarose [Sigma, Poole, UK]). Cultures were maintained at 25° C. with a 16 h photoperiod for 5 days prior to bombardment. Immature embryos were isolated as described for example 1, plated onto W3 medium and maintained in the dark. After 5-7 days embryos were transferred to W3 medium supplemented with Asulam (Rhone-Poulenc Agrochemicals, Ongar, UK) at a range of concentrations between 0 and 5 mg/l and maintained at 25° C. with a 16 h photo period. Embryos and embryo-derived embryogenic calli were transferred to fresh selective medium every 2 weeks. The calli were scored for embryogenic response after 6 weeks.

On to `COC(=O)NS(=O)(=O)c1ccc(N)cc1` [Asulam], for which the “Embryogenic response (%)” value (Asulam 0.1 mg/l in W3 medium, (no. embryos with embryogenic callus/total no. embryos plated) × 100) is listed as 100%; the “Embryogenic response (%)” value (Asulam 0.25 mg/l in W3 medium) turned out to be 64%; the “Embryogenic response (%)” value (Asulam 0.5 mg/l in W3 medium) is given as 28%; the “Embryogenic response (%)” value (Asulam 1 mg/l in W3 medium) was found to be 0%; the “Embryogenic response (%)” value (Asulam 2 mg/l in W3 medium) was 0%; the “Embryogenic response (%)” value (Asulam 3 mg/l in W3 medium) was determined as 0%. The “Embryogenic response (%)” value is listed as 0% (Asulam 4 mg/l in W3 medium) and 0% (Asulam 5 mg/l in W3 medium).
